The assay has as its system Rattus norvegicus. The assay is described as follows: Effective oral dose of compound for Post-coital antifertility activity was determined in rats. The arrangement: unit not given here. The class given is functional.
Take `Fc1ccccc1C(=C(c1ccccc1)c1ccccc1)C(F)(F)F`: the pED50 worked out at 1.204.

Take `Fc1ccc(/C(=C(/c2ccccc2)C(F)(F)F)c2ccccc2)cc1`: the pED50 turned out to be 2.491.

In the case of `FC(F)(F)C(=C(c1ccccc1)c1ccccc1)c1cccc(C(F)(F)F)c1`, the pED50 came to 1.477.

Molecule `FC(F)(F)C(=C(c1ccccc1)c1ccccc1)c1cccs1` yielded a pED50 of 2.914.

In the case of `FC(F)(F)C(F)(F)C(=C(c1ccccc1)c1ccccc1)c1ccccc1`, the pED50 was 2.301.

In the case of `COc1ccc(/C(=C(/c2ccccc2)C(F)(F)F)c2ccccc2)cc1`, the pED50 was determined as 1.114.

`COc1ccc(C(=C(c2ccccc2)c2ccccc2)C(F)(F)F)cc1`: the pED50 stood at 2.079.

`Fc1ccc(C(=C(c2ccccc2)c2ccccc2)C(F)(F)F)cc1`: the pED50 is given as 1.602.

Turning to `FC(F)(F)C(c1ccccc1)C(c1ccccc1)c1ccccc1` (stereo not drawn), the pED50 is given as 2.991.

Take `Fc1cccc(C(=C(c2ccccc2)c2ccccc2)C(F)(F)F)c1`: the pED50 is on record as 1.204.

Molecule `COc1ccc(/C(=C(\c2ccccc2)C(F)(F)F)c2ccccc2)cc1` had a pED50 of 1.602.

Turning to `FC(F)(F)C(=C(c1ccccc1)c1ccccc1)c1ccc(C(F)(F)F)cc1`, the pED50 is given as 1.477.

`COc1ccc(C(=C(c2ccccc2)C(F)(F)F)c2ccc(OC)cc2)cc1` displayed a pED50 of 2.079.

Turning to `COc1ccc(/C(=C(/c2ccc(F)cc2)C(F)(F)F)c2ccccc2)cc1`, the pED50 amounted to 1.301.

For the molecule `FC(F)(F)C(=C(c1ccccc1)c1ccccc1)c1ccc(Cl)cc1`, the pED50 is on record as 1.477.

Take `FC(F)(F)C(=C(c1ccccc1)c1ccccc1)c1ccccc1`: the pED50 was found to be 2.079.

Molecule `FC(F)(F)C(=C(c1ccccc1)c1ccccc1)c1ccc(C(F)(C(F)(F)F)C(F)(F)F)cc1` gave a pED50 of 1.204.

For `Cc1ccc(C(=C(c2ccccc2)c2ccccc2)C(F)(F)F)cc1`, the pED50 was 2.681.

These data come from ChEMBL document CHEMBL1149218, “Predicting pharmacophore signals for post-coital antifertility activity of 1-trifluoromethyl-1,2,2-triphenylethylene derivatives: a statistical approximation using E-state index” (2004).
